Experimental data reported in doi:10.1101/119818v1 (biorxiv, 2017).

Biological target: T1, PARP3 (Homo sapiens, UniProt Q9Y6F1)
T1 sequence (Q9Y6F1 1-533): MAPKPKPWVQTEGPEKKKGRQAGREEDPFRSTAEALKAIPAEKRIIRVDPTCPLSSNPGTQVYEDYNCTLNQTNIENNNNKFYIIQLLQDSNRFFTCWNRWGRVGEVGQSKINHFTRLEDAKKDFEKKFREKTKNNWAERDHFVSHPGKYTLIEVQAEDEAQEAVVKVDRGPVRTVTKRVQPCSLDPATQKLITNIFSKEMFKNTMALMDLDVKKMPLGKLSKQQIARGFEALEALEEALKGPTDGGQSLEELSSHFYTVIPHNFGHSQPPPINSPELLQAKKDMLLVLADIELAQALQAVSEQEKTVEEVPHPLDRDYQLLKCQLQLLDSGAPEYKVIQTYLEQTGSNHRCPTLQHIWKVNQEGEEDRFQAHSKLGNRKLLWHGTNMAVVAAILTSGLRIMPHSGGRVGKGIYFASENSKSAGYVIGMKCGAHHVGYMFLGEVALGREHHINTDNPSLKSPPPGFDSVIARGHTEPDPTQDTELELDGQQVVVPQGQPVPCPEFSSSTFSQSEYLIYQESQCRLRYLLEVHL
Assay: in vitro enzymatic inhibition assay, concentration response
Assay type: biochemical

IC50: 728 nM
Compound: NC(=O)c1cccc2[nH]c(-c3ccc([C@@H]4CCCN4)cc3F)nc12 [A-966492]
